In the supplement of paper PMC10307832:

Key:
Assay in all cases: relative viability (nuclei count vs DMSO), 5 days (fraction); higher = more cells survive
AZD8055 = compound: COc1ccc(-c2ccc3c(N4CCOC[C@@H]4C)nc(N4CCOC[C@@H]4C)nc3n2)cc1CO [AZD8055]
Procedure, shortened: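 Only plates meeting two conditions passed: control CV below 25% and at least one doubling. Lung cancer cell lines, kept overnight at 37 °C in 1536-well plates, were pinned with five library-drug doses (not always all listed) √10 apart on vehicle-anchored plates and grown 5 days without medium change. A one-step fix, permeabilisation and Hoechst stain preceded 4× imaging and MetaXpress nuclear counting. Viability equals treated-well nuclei divided by vehicle-well nuclei, as the median over plates.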

AZD8055 + Foretinib = compound: COc1ccc(-c2ccc3c(N4CCOC[C@@H]4C)nc(N4CCOC[C@@H]4C)nc3n2)cc1CO [AZD8055] + COc1cc2c(Oc3ccc(NC(=O)C4(C(=O)Nc5ccc(F)cc5)CC4)cc3F)ccnc2cc1OCCCN1CCOCC1 [Foretinib] (partner 0.25 µM)
Procedure, shortened: (§1)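 One day after seeding in 1536-well plates, lung cancer cell lines were dosed by pin tool. Dosing was either single-drug or a fixed anchor-drug dose plus five library-drug doses (not always all listed) in √10 steps. After 5 days, nuclei were stained in one fix-and-stain step and counted on 4× images, and relative viability is the nuclei count of treated wells over that of vehicle wells, given as the median of duplicate plates.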

AZD8055 + Pictilisib = compound: COc1ccc(-c2ccc3c(N4CCOC[C@@H]4C)nc(N4CCOC[C@@H]4C)nc3n2)cc1CO [AZD8055] + CS(=O)(=O)N1CCN(Cc2cc3nc(-c4cccc5[nH]ncc45)nc(N4CCOCC4)c3s2)CC1 [Pictilisib] (partner 1 µM)
Procedure, shortened: as §1

AZD8055 + Olaparib = compound: COc1ccc(-c2ccc3c(N4CCOC[C@@H]4C)nc(N4CCOC[C@@H]4C)nc3n2)cc1CO [AZD8055] + O=C(c1cc(Cc2n[nH]c(=O)c3ccccc23)ccc1F)N1CCN(C(=O)C2CC2)CC1 [Olaparib] (partner 8 µM)
Procedure, shortened: as §1

AZD8055 + Lapatinib = compound: COc1ccc(-c2ccc3c(N4CCOC[C@@H]4C)nc(N4CCOC[C@@H]4C)nc3n2)cc1CO [AZD8055] + CS(=O)(=O)CCNCc1ccc(-c2ccc3ncnc(Nc4ccc(OCc5cccc(F)c5)c(Cl)c4)c3c2)o1 [Lapatinib] (partner 2 µM)
Procedure, shortened: as §1

AZD8055 + Linsitinib = compound: COc1ccc(-c2ccc3c(N4CCOC[C@@H]4C)nc(N4CCOC[C@@H]4C)nc3n2)cc1CO [AZD8055] + C[C@]1(O)C[C@@H](c2nc(-c3ccc4ccc(-c5ccccc5)nc4c3)c3c(N)nccn32)C1 [Linsitinib] (partner 1 µM)
Procedure, shortened: as §1

AZD8055 + Crizotinib = compound: COc1ccc(-c2ccc3c(N4CCOC[C@@H]4C)nc(N4CCOC[C@@H]4C)nc3n2)cc1CO [AZD8055] + C[C@@H](Oc1cc(-c2cnn(C3CCNCC3)c2)cnc1N)c1c(Cl)ccc(F)c1Cl [Crizotinib] (partner 1 µM)
Procedure, shortened: as §1

AZD8055 + Bortezomib = compound: COc1ccc(-c2ccc3c(N4CCOC[C@@H]4C)nc(N4CCOC[C@@H]4C)nc3n2)cc1CO [AZD8055] + CC(C)C[C@H](NC(=O)[C@H](Cc1ccccc1)NC(=O)c1cnccn1)B(O)O [Bortezomib] (partner 0.002 µM)
Procedure, shortened: as §1

AZD8055 + Alpelisib = compound: COc1ccc(-c2ccc3c(N4CCOC[C@@H]4C)nc(N4CCOC[C@@H]4C)nc3n2)cc1CO [AZD8055] + Cc1nc(NC(=O)N2CCC[C@H]2C(N)=O)sc1-c1ccnc(C(C)(C)C(F)(F)F)c1 [Alpelisib] (partner 2 µM)
Procedure, shortened: as §1

AZD8055 + Navitoclax = compound: COc1ccc(-c2ccc3c(N4CCOC[C@@H]4C)nc(N4CCOC[C@@H]4C)nc3n2)cc1CO [AZD8055] + CC1(C)CCC(c2ccc(Cl)cc2)=C(CN2CCN(c3ccc(C(=O)NS(=O)(=O)c4ccc(N[C@H](CCN5CCOCC5)CSc5ccccc5)c(S(=O)(=O)C(F)(F)F)c4)cc3)CC2)C1 [Navitoclax] (partner 0.5 µM)
Procedure, shortened: as §1

## NCI-H1299
AZD8055; 0.01 µM
  relative viability: 1.04
AZD8055; 0.03162 µM
  relative viability: 1.06
AZD8055; 0.1 µM
  relative viability: 1.04
AZD8055; 0.3162 µM
  relative viability: 0.807
AZD8055; 1 µM
  relative viability: 0.415
AZD8055 + Foretinib; first compound 0.01 µM
  relative viability: 1.19
AZD8055 + Foretinib; first compound 0.03162 µM
  relative viability: 1.18
AZD8055 + Foretinib; first compound 0.1 µM
  relative viability: 1.14
AZD8055 + Foretinib; first compound 0.3162 µM
  relative viability: 0.863
AZD8055 + Foretinib; first compound 1 µM
  relative viability: 0.528
AZD8055 + Pictilisib; first compound 0.01 µM
  relative viability: 0.635
AZD8055 + Pictilisib; first compound 0.03162 µM
  relative viability: 0.572
AZD8055 + Pictilisib; first compound 0.1 µM
  relative viability: 0.363
AZD8055 + Pictilisib; first compound 0.3162 µM
  relative viability: 0.24
AZD8055 + Pictilisib; first compound 1 µM
  relative viability: 0.233
AZD8055 + Olaparib; first compound 0.01 µM
  relative viability: 1.06
AZD8055 + Olaparib; first compound 0.03162 µM
  relative viability: 1.03
AZD8055 + Olaparib; first compound 0.1 µM
  relative viability: 0.889
AZD8055 + Olaparib; first compound 0.3162 µM
  relative viability: 0.574
AZD8055 + Olaparib; first compound 1 µM
  relative viability: 0.353
AZD8055 + Lapatinib; first compound 0.01 µM
  relative viability: 0.974
AZD8055 + Lapatinib; first compound 0.03162 µM
  relative viability: 1.07
AZD8055 + Lapatinib; first compound 0.1 µM
  relative viability: 0.98
AZD8055 + Lapatinib; first compound 0.3162 µM
  relative viability: 0.758
AZD8055 + Lapatinib; first compound 1 µM
  relative viability: 0.439
AZD8055 + Linsitinib; first compound 0.01 µM
  relative viability: 1.08
AZD8055 + Linsitinib; first compound 0.03162 µM
  relative viability: 0.948
AZD8055 + Linsitinib; first compound 0.1 µM
  relative viability: 0.798
AZD8055 + Linsitinib; first compound 0.3162 µM
  relative viability: 0.436
AZD8055 + Linsitinib; first compound 1 µM
  relative viability: 0.295
AZD8055 + Crizotinib; first compound 0.01 µM
  relative viability: 0.998
AZD8055 + Crizotinib; first compound 0.03162 µM
  relative viability: 0.995
AZD8055 + Crizotinib; first compound 0.1 µM
  relative viability: 0.968
AZD8055 + Crizotinib; first compound 0.3162 µM
  relative viability: 0.891
AZD8055 + Crizotinib; first compound 1 µM
  relative viability: 0.51
AZD8055 + Bortezomib; first compound 0.01 µM
  relative viability: 1.08
AZD8055 + Bortezomib; first compound 0.03162 µM
  relative viability: 1.05
AZD8055 + Bortezomib; first compound 0.1 µM
  relative viability: 1.11
AZD8055 + Bortezomib; first compound 0.3162 µM
  relative viability: 0.931
AZD8055 + Bortezomib; first compound 1 µM
  relative viability: 0.576
AZD8055 + Alpelisib; first compound 0.01 µM
  relative viability: 1.17
AZD8055 + Alpelisib; first compound 0.03162 µM
  relative viability: 1.04
AZD8055 + Alpelisib; first compound 0.1 µM
  relative viability: 1.06
AZD8055 + Alpelisib; first compound 0.3162 µM
  relative viability: 0.628
AZD8055 + Alpelisib; first compound 1 µM
  relative viability: 0.468
AZD8055 + Navitoclax; first compound 0.01 µM
  relative viability: 1.05
AZD8055 + Navitoclax; first compound 0.03162 µM
  relative viability: 1.08
AZD8055 + Navitoclax; first compound 0.1 µM
  relative viability: 1.02
AZD8055 + Navitoclax; first compound 0.3162 µM
  relative viability: 0.939
AZD8055 + Navitoclax; first compound 1 µM
  relative viability: 0.67
